Assay results taken from paper PMC4893694, “Identification of potent maturation inhibitors against HIV-1 clade C” (Scientific Reports, 2016).

Key:
[1] = tested on: HIV-1 clade C K3016 virus; experiment: Antiviral assay, spreading HIV-1 infection in HUT-R5 T-cell line (p24 reduction); assay type: cell-based; conditions: Human immunodeficiency virus 1, T-cell, 192 h; HUT-R5 cells infected with K3016, 8 days, HIV-1 p24 in supernatant; representative of two independent experiments
Procedure: HUT-R5 cells were infected with K3016 virus and cultured for eight days in the presence of serial dilutions of each compound. Antiviral activity was monitored by reduction in HIV-1 p24 levels in culture supernatants.
HUT-R5 cells were infected with normalized HIV-1 clade C K3016 virus stocks at 37 °C for 1 h. Cells were then maintained for 8 days in the presence of serial dilutions of MIs. After 8 days, the HIV-1 p24 concentration in the virus supernatants was measured to monitor virus replication.

[2] = Cytotoxicity assay (CellTitre-Blue) in HEK-293T; assay type: cell-based; conditions: human, HEK-293T cells
Procedure: (§1) Cytotoxicity assays were performed using the CellTitre-Blue Cell Viability Assay kit (Promega, USA) as per manufacturer’s recommendations. HEK-293T and HUT-R5 cell lines were maintained in the presence of serial dilutions of MIs for 4 days and treated with CellTitre-Blue reagent for 4 h at 37 °C. The fluorescent signals were recorded at 530/25excitation and 590/35emission using BioTek microplate reader.

[3] = Cytotoxicity assay (CellTitre-Blue) in HUT-R5; assay type: cell-based; conditions: human, HUT-R5 cells; HUT-R5, 4 days
Procedure: as §1

[4] = tested on: HIV-1 clade C molecular clone K3016 (CA-SP1 processing); assay type: cell-based; conditions: for activity (CA-SP1 accumulation): K3016, 10 nM; for accumulation of the CA-SP1 processing intermediate over a range of doses: K3016, 2–50 nM
Procedure: (§2) Viral supernatants were pelleted and separated on SDS-PAGE followed by western blotting using HIV-IgG antibody.
(§3) 24 h post-transfection, the culture medium was replaced with fresh DMEM and incubated for another 2 h. MIs were maintained in the culture throughout transfection. […] The clarified supernatants were filtered (pore size 0.45 μm filter disc) to remove residual cellular contaminants. For determination of viral infectivity, the unconcentrated virus was used to infect TZM-bl cells.
(§4) To measure accumulation of CA-SP1, immunoblot analysis of virus-associated proteins was performed. The virus pellet was resuspended in radioimmunoprecipitation assay (RIPA) buffer (50 mM Tris-HCl pH 8.0, 150 mM sodium chloride, 1.0% NP-40, 0.5% sodium deoxycholate, 0.1% SDS) containing 1 × protease inhibitor cocktail (Roche, Germany). […] The proteins were visualized by enhanced chemiluminescence (Pierce, USA) and the bands were quantified using ImageJ software (http://imagej.nih.gov/ij/).

[5] = tested on: HIV-1 clade C molecular clone IndieC1 (CA-SP1 processing); conditions: HEK-293T transfected with IndieC1, increasing concentrations 0.1–5.0 μM, western blot
Procedure: as §2, §3, §4

[6] = tested on: HIV-1 clade C molecular clone ZM247 (CA-SP1 processing); conditions: HEK-293T transfected with ZM247, increasing concentrations 0.1–5.0 μM, western blot
Procedure: as §2, §3, §4

[7] = tested on: HIV-1 clade B molecular clone NL4-3 (CA-SP1 processing); conditions: HEK-293T transfected with NL4-3, increasing concentrations 0.1–5.0 μM, western blot
Procedure: as §2, §3, §4

SMILES	IC50 [1]	CC50 at 4 days [2]	CC50 at 4 days [3]	activity (CA-SP1 accumulation) [4]	accumulation of the CA-SP1 processing intermediate over a range of doses [4]	accumulation of p25 (CA-SP1) [5]	accumulation of p25 (CA-SP1) [6]	accumulation of p25 (CA-SP1) [7]	accumulation of p25 (CA-SP1) ([4]; HEK-293T transfected with K3016, increasing concentrations 0.1–5.0 μM, western blot)
C=C(C)C1CCC2(CCNC3CCN(CCO)CC3)CCC3(C)C(CCC4C5(C)CCC(OC(=O)CC(C)(C)CC(=O)O)C(C)(C)C5CCC43C)C12 (stereo not shown) [Compound 7s]	1.3 nM	> 1000 nM	> 1000 nM	~40%	dose-dependent accumulation	–	–	–	–
C=C(C)C1CCC2(CCNC3CCN(C)CC3)CCC3(C)C(CCC4C5(C)CCC(OC(=O)CC(C)(C)CC(=O)O)C(C)(C)C5CCC43C)C12 (stereo not shown) [Compound 7j]	5.9 nM	> 1000 nM	> 1000 nM	–	–	–	–	–	–
C=C(C)[C@@H]1CC[C@]2(C(=O)O)CC[C@]3(C)[C@H](CC[C@@H]4[C@@]5(C)CC[C@H](OC(=O)CC(C)(C)C(=O)O)C(C)(C)[C@@H]5CC[C@]43C)[C@@H]12 [BVM, 3-0-(3′-3′-dimethylsuccinyl) betulinic acid, reference compound]	> 1000 nM	> 5000 nM	> 1000 nM	–	–	resistant	resistant	dose-dependent accumulation of p25	resistant
C=C(C)C1CCC2(CCNCCCN3CCCC3)CCC3(C)C(CCC4C5(C)CCC(OC(=O)CC(C)(C)CC(=O)O)C(C)(C)C5CCC43C)C12 (stereo not shown) [Compound 7h]	11.3 nM	> 1000 nM	> 1000 nM	–	–	–	–	–	–
C=C(C)C1CCC2(CCNC3CCN(CC)CC3)CCC3(C)C(CCC4C5(C)CCC(OC(=O)CC(C)(C)CC(=O)O)C(C)(C)C5CCC43C)C12 (stereo not shown) [Compound 7r]	1.5 nM	> 1000 nM	> 1000 nM	~40%	dose-dependent accumulation	–	–	–	–
C=C(C)C1CCC2(CCNCCN(C)C)CCC3(C)C(CCC4C5(C)CCC(OC(=O)CC(C)(C)CC(=O)O)C(C)(C)C5CCC43C)C12 (stereo not shown) [Compound 7m]	1.4 nM	> 1000 nM	> 1000 nM	~40%	dose-dependent accumulation	–	–	–	–
